One assay deals with Gene expression in WAT. The assay can be described thus: Gene expression profiling of white adipose tissue of treated db/db mice. The following applies: obese diabetic db/db mice. It is filed as in vivo. The text has this:
Examples of such genes include adipophilin and keratinocyte fatty acid binding protein, the gene products of these genes are involved in intracellular fatty acid trafficking).
Adipose (fat) tissue is a major place of synthesis of PAI-1, a risk factor for thrombosis, angiotensinogen precursor, a risk factor for hypertension and renin, a risk factor for hypertension (see Ahima and Flier, TEM, 11: 327-332, 2000).

In assay [1] the target is T1, human PPARα ligand binding domain (Homo sapiens, UniProt Q07869).
T1 sequence (Q07869 239-466 limits assumed): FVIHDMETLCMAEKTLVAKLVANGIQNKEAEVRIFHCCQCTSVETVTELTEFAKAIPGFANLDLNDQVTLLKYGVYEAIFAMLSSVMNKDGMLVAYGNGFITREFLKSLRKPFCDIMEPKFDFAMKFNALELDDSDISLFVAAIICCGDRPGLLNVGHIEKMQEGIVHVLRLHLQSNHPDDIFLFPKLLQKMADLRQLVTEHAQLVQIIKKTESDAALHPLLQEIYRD
Put plainly: PPARα ligand binding study with purified ligand binding domain. Conditions: competition with labeled PPARα ligand BMS-compound B. From the text:
FIG. 1B: Illustrates the binding of a labeled authentic PPARα ligand (BMS-compound B) to human PPARα binding domain.
Compound Y is a compound synthesized by the scheme outlined in Example 1 herein. […] The in vitro ligand binding studies with purified ligand binding domain thus show the ability of Compound Y to bind potently to both PPARγ and PPARα. It is however, well known for the nuclear hormone receptor family of transcription factors that (PPARs are members of this family) that a compound which potently binds to (i.e. a ligand) can act as an agonist (ligand which activates) and an antagonist (ligand which inactivates the receptor).

A further assay deals with T2, PPARα (Homo sapiens, UniProt Q07869).
T2 construct: HepG2 cells (human liver origin), that express endogenous PPARα gene were stably transfected with a PPAR responsive SEAP reporter gene; endogenous in cells; host or cells: HepG2 cells stably transfected with a PPAR responsive SEAP reporter
T2 sequence (Q07869 1-468): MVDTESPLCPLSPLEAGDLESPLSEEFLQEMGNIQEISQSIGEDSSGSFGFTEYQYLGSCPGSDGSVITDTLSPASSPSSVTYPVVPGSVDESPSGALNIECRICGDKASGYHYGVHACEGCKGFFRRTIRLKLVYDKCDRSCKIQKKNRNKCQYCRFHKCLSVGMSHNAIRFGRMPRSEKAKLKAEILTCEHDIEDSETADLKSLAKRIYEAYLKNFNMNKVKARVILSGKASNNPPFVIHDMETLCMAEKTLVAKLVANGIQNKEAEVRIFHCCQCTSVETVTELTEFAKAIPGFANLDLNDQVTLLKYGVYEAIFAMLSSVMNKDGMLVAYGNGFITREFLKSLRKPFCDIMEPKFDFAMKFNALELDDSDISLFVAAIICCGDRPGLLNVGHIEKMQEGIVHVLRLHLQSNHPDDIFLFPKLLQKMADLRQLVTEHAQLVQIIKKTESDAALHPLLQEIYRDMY
The assay can be described thus: PPARα dependent SEAP reporter transactivation in HepG2 cells. It is filed as cell-based.

The target in assay [2] is T3, human PPARγ ligand binding domain (Homo sapiens, UniProt P37231).
T3 sequence (P37231 238-503 limits assumed): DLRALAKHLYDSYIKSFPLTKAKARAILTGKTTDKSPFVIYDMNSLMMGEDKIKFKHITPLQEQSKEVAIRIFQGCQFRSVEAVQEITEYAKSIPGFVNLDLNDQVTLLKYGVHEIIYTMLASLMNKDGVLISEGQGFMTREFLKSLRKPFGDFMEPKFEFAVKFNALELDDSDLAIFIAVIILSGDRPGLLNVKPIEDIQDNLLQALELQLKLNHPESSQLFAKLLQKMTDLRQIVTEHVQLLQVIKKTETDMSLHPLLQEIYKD
The assay can be described thus: PPARγ ligand binding study with purified ligand binding domain. Conditions: competition with labeled PPARγ ligand BMS-compound A. The text has this: Compound Y is a compound synthesized by the scheme outlined in Example 1 herein.

Assay [3] concerns obese diabetic db/db mice. Put plainly: Plasma glucose and lipids in treated obese diabetic db/db mice. Conditions: 3 mg/kg/day. The assay is classed as in vivo. The text has this: As illustrated in Table 3 treatment of obese diabetic db/db mice with the dual PPARγ antagonist/PPARα agonist Compound Y results in no significant change in plasma glucose and a significant decrease in plasma triglycerides and free fatty acids levels. As indicated before, changes in lipid and glycemic conditions are two significant potential concerns of reducing PPARγ activity. Based on the study described here it is concluded that obese mammals can be safely treated with a dual PPARγ antagonist/PPARα agonist. The reduction in plasma triglycerides and free fatty acids are likely due to the […] activity of Compound Y.

The test system of assay [4] is mouse 3T3-L1 pre-adipocytes. Put plainly: Inhibition of rosiglitazone induced differentiation of 3T3-L1 pre-adipocytes (glycerol release). The assay is classed as cell-based. The following applies: rosiglitazone induced differentiation of 3T3-L1 cells. As for the experimental part: PPARγ has been considered a major trigger for the adipocyte differentiation process (see Tontonoz et al., Current Biology, 571-576, 1995).
5×10^5 3T3-L1 cells per plate were added to 96 well plates and cultured in DMEM-high glucose and 10% FBS medium for two days, before induction. Cells were induced for 48 hr with 1 μm dexamethasone, 5 μg/ml insulin, and […] isobutylmethylxanthine (IBMX) in the same medium. […] After a total of 5 days incubation, 4 μl of media from each well were collected and diluted into 40 μl of H2O in 96 well ELISA plate, 300 μl of Triglycerides Blank Reagent (Bayer Diagnostics) was added into each well and incubated for 5 min at room temperature. […] The ED50 values were calculated using standard equations for mid-point of the activity inhibition curves.

The next assay relates to diet induced obese mice. Put plainly: Diet induced obese mice: body composition, plasma and liver parameters. The assay is classed as in vivo. From the text:
As indicated before, changes in lipid and glycemic conditions are two potential concerns of reducing PPARγ activity. Based on the study described here it is concluded that safe reduction of fat mass in an obese diabetic mammal (including human) is possible through administration of a dual PPARγ antagonist/PPARα agonist. This feature is in contrast to the observed hyperlipidemia and hyperglycemia in lipodystrophic patients and in patients with severe mutations in PPARγ gene.
In obese mice, as in obese human, the liver lipid level is elevated. Often, this is accompanied by an increase in plasma liver enzyme ALT level indicating to liver damage. Upon treatment with dual PPARγ antagonist/PPARα agonist Compound Y there was a substantial reduction in liver triglyceride content, although not reaching statistical significance, which was accompanied by a significant reduction in plasma liver enzyme ALT levels. Both these changes are indicative of improvement in liver function as a result of stimulation of PPARα mediated fatty acid oxidation and reduction of lipid synthesis leading to reduced lipid content (see. Torra et al., Current Opinion in Lipidology, 10: 151-159, 1999; Kersten et al., Nature, 405: 421424, 2000).
C57BL/6 mice were fed a diet rich in fat (40%) and sucrose (40%) (see, York {Genetic models of obesity} and Sclafani {Dietary models of obesity}, both in Obesity, Bjorntorp and Brodoff eds. JB Lippincott Company, 1992; McIntosh and Pederson; McNeill. eds. CRC press LLC, 337-398, 1999; Farrelly et al., Proc. Natl. Acad. Sci. 96: 14511-14516, 1999). Under these dietary conditions, C57BL/6 mice gain considerable body weight and become obese. These mice were treated with a dual PPARγ antagonist/PPARα agonist (dose 0.01 to 100 mg/kg/day), administered in a pharmacologically acceptable vehicle (such as but not limited to, 5% CM-cellulose) through orally, intravenous, subcutaneous or intraportal injection, or mixed with food or water, acutely or over an extended period of time. During the course of the study, various parameters such as water and food consumption, body weight gain, body composition by dual emission X-ray analyzer (DEXA, this instrument accurately measures body fat mass, body lean muscle mass and body bone mineral content), body temperature was measured by standard methods. Through tail vein bleeding, blood was collected in heparin-EDTA coated tubes to prevent clotting and blood plasma was separated and analyzed for glucose, free fatty acids, triglycerides and cholesterol using reagent kits available from Roche Diagnostics in a COBAS-MIRA instrument. Insulin and leptin are measured by commercially available ELISA kits. Compounds that act to reduce body weight and or decrease glucose were selected. At the end of the treatment period animals were euthanized by brief exposure to CO2 and internal organs such as liver and white adipose tissue were harvested for additional analysis. These analyses may include, but not limited to, determination of lipid content, and effect on various PPARγ and PPARα target gene expression.

A further assay has as its target PPARγ (Chlorocebus sabaeus, UniProt A0A0D9RBU3). The assay can be described thus: Inhibition of rosiglitazone induced SEAP reporter transactivation in CV-1 cells. It is filed as cell-based, primate. The following applies: read-out: ED50 for inhibition of rosiglitazone induced transactivation of SEAP gene, PPAR responsive SEAP reporter.
[5] abbreviates: 10 mg/kg/day once a day, 3 weeks.
Where [6] appears, read: 10 mg/kg/day, 3 weeks, P < 0.05.
Where [7] appears, read: 3 weeks at 10 mg/kg/day, once a day.

These results are taken from patent US6967212B2, “Substituted azole acid derivatives useful as antidiabetic and antiobesity agents and method” (Bristol-Myers Squibb Company, priority 2001, dated 2005).

Marks after values point to notes of the source that are not given here.

Sequence of PPARγ (A0A0D9RBU3 entry or part of it): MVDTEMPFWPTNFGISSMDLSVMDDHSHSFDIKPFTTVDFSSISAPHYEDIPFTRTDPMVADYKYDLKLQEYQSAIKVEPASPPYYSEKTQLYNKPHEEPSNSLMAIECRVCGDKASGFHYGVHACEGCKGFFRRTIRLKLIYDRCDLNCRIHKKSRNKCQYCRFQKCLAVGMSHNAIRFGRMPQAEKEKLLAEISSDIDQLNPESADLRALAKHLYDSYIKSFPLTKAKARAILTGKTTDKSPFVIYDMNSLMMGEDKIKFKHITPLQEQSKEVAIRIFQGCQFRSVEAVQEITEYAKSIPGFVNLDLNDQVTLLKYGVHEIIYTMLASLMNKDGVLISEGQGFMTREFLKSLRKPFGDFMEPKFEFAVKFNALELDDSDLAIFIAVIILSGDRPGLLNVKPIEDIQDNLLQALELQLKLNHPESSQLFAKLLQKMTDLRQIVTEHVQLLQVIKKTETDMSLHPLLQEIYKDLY

For the compound `CN(CCOc1ccc(CC2SC(=O)NC2=O)cc1)c1ccccn1` (stereo not drawn) [rosiglitazone, reference compound], in the assay on Gene expression in WAT, the “G-protein coupled receptor 26 gene expression in WAT” value stood at 4.3 and the “Renin gene expression in WAT” value is recorded as 13.9.
On to `CCCCCCCN(CCc1ccc(O[C@@](C)(CC)C(=O)O)cc1)C(=O)Nc1ccc(F)cc1F` [GW-2331, reference compound], for which the IC50 in assay [1] stood at 410 nM. That is a sub-micromolar value.
On PPARα, BMS-250773 [reference compound] showed an EC50 of 63 nM.
As to `Cc1oc(-c2ccccc2)nc1CCOc1cccc(Cc2nn(-c3ccccc3)nc2C(=O)O)c1` [Compound Y], in the assay on Gene expression in WAT, the “Adipophilin gene expression in WAT” value stood at 4.1, the “Angiotensinogen precursor gene expression in WAT” value was found to be 0.46, the “Glycerol-3 PO4 dehydrogenase gene expression in WAT” value is listed as 0.39 and the “HMGic gene expression in WAT” value is recorded as 2.2. Moreover, in the assay on Gene expression in WAT, the “Keratinocyte fatty acid binding protein gene expression in WAT” value came to 3.3 and the “PAI-1 gene expression in WAT” value is 0.45. Also, in assay [2], the concentration for half-maximal inhibition (IC50) was 69 nM. Also, in assay [3], the Free fatty acids was 0.76 ± 0.12 meq/L; the Glucose came out at 683.0 ± 25.2 mg/dL; the “Glucose, change versus vehicle” value was −13%; the Triglyceride is listed as 145.3 ± 12.5 mg/dL. Moreover, in assay [3] (p < 0.05), the “Free fatty acids, change versus vehicle” value was −36%* and the “Triglyceride, change versus vehicle” value is on record as −45%*. In assay [1], this compound showed an IC50 of 69 nM. Besides, in assay [4], the “ED50 for inhibition of differentiation” value came out at 9900 nM. The same compound displayed an EC50 at PPARα of 587 nM. For the same compound, the “plasma lipid (free fatty acids, triglycerides and cholesterol) and glycemic (glucose and insulin) parameters (in words)” value in the assay on diet induced obese mice is listed as “very little change”. The compound further came in with a Liver triglycerides with diet induced obese mice (10 mg/kg/day) of 55.4 ± 7.0 mg/g. Moreover, in the assay with diet induced obese mice (setting [5]), the “% Fat body mass” value is 41.5 ± 1.8% and the “% Lean body mass” value is 56.0 ± 1.8%. In addition, in the assay on diet induced obese mice (setting [6]), the “% Fat body mass, change versus vehicle” value is “(−12%)*” and the “% Lean body mass, change versus vehicle” value is listed as “(+11%)*”. For the same compound, the “ALT, change versus vehicle” value with diet induced obese mice (10 mg/kg/day, P < 0.05) is given as “(−38%)*”. The “Liver triglycerides, change versus vehicle” value in the assay on diet induced obese mice (10 mg/kg/day, not statistically significant) is on record as “(−24%)”. In the assay on diet induced obese mice (setting [7]), the “body weight (in words)” value is listed as “no significant reduction in body weight”, the “increase in lean body mass” value came out at 14% and the “reduction of body fat mass” value stood at 15%. In the assay with diet induced obese mice (plasma, 10 mg/kg/day), the ALT came out at 98.0 ± 12.6 IU/L, the Cholesterol is given as 270.4 ± 9.4 mg/dL, the Glucose came out at 260.7 ± 12.3 mg/dL and the Insulin was 8.2 ± 1.2 ng/mL. For the same compound, the Triglyceride in the assay on diet induced obese mice (plasma, 10 mg/kg/day) is 105.5 ± 8.1 mg/dL. Further, at PPARγ, the EC50 came out at 1500 nM.
Consider `CCCCCCCC1SC(CC(=O)N(Cc2ccccc2)Cc2ccccc2)C(=O)N1CCCCc1ccc(C(=O)O)cc1` (stereo not drawn) [GW0072, reference compound], for which the IC50 in assay [2] stood at 280 nM. Besides, the “ED50 for inhibition of differentiation” value in assay [4] amounted to 585 nM.

The IC50 is the concentration needed to halve the response being measured. High values mean lower potency, low ones higher potency.
